Like-named read-outs stand apart in the source and are kept apart here.
Assay: Pharmacokinetics of FTD and TPI in plasma of solid cancer patients given FTD/TPI combination drug, by renal function cohort
Type: in vivo, human
Settings: for CL/F / Cmax / half-life / AUC(0-t): 35 mg/m^2 per once as FTD, oral, twice a day, plasma, mean; for Cmax / half-life / AUC(0-t): human, po; for AUC(0-t): read-out: AUC0-12; for AUC0-12 higher as compared to patients with normal renal function: after repeated administrations, 35 mg/m^2
Description: Pharmacokinetic of FTD was studied in patients with solid cancer including colorectal cancer, when performing a treatment of repeating an administration schedule of orally administering an FTD/TPI combination drug (mixture of FTD and TPI in a molar ratio of 1:0.5) in 35 mg/m^2 per once (as FTD, the same applies hereinafter) for 5 consecutive days twice a day, followed by rest for 2 days twice, followed by rest for 14 days, and repeating this procedure as one cycle. […] Blood collection was performed after administration of the FTD/TPI combination drug on Day 1 and Day 12, at predose and at 0.5, 1, 2, 4, 6, 8, 10, 12 hours after administration, and FTD and TPI concentrations in plasma were measured. Pharmacokinetic parameters of FTD and TPI were calculated using the resulting concentrations in the plasma, and the results were shown in Table 1.

[1] = Day 1, Cohort 0: normal renal function
[2] = Day 1, Cohort 1: mild renal impairment (CLcr 60 to 89 mL/min)
[3] = Day 1, Cohort 2: moderate renal impairment (CLcr 30 to 59 mL/min)
[4] = Day 12, Cohort 0: normal renal function
[5] = Day 12, Cohort 1: mild renal impairment (CLcr 60 to 89 mL/min)
[6] = Day 12, Cohort 2: moderate renal impairment (CLcr 30 to 59 mL/min)
[7] = 35 mg/m2, Day 1, Cohort 0: normal renal function
[8] = 35 mg/m2, Day 1, Cohort 1: mild renal impairment (CLcr 60 to 89 mL/min)
[9] = 35 mg/m2, Day 1, Cohort 2: moderate renal impairment (CLcr 30 to 59 mL/min)
[10] = 35 mg/m2, Day 12, Cohort 0: normal renal function
[11] = 35 mg/m2, Day 12, Cohort 1: mild renal impairment (CLcr 60 to 89 mL/min)
[12] = 35 mg/m2, Day 12, Cohort 2: moderate renal impairment (CLcr 30 to 59 mL/min)

CL/F [1] [L/h]	CL/F [2] [L/h]	CL/F [3] [L/h]	CL/F [4] [L/h]	CL/F [5] [L/h]	CL/F [6] [L/h]	Cmax [7] [ng/mL]	half-life [7] [h]	AUC(0-t) [7] [ng·h/mL]	Cmax [8] [ng/mL]	half-life [8] [h]	AUC(0-t) [8] [ng·h/mL]	Cmax [9] [ng/mL]	half-life [9] [h]	AUC(0-t) [9] [ng·h/mL]	Cmax [10] [ng/mL]	half-life [10] [h]	AUC(0-t) [10] [ng·h/mL]	Cmax [11] [ng/mL]	half-life [11] [h]	also measured	Structure (SMILES)
8.72	10.08	9.17	3.29	4.1	2.1	2880	1.26	7870	3160	1.79	7290	2760	1.9	8140	5240	2.09	20100	4670	2.4	AUC(0-t) [11]: 23400 ng·h/mL; Cmax [12]: 6010 ng/mL; half-life [12]: 3.22 h; AUC(0-t) [12]: 30400 ng·h/mL; AUC0-12 higher as compared to patients with normal renal function (patients with mild renal impairment (Cohort 1)): about 16%; AUC0-12 higher as compared to patients with normal renal function (patients with moderate renal impairment (Cohort 2)): about 51%	O=c1[nH]c(=O)n([C@H]2C[C@H](O)[C@@H](CO)O2)cc1C(F)(F)F [FTD, α,α,α-trifluorothymidine]
148.5	105.1	64.8	128.3	83.1	62	46.5	2.04	234	93.9	2.33	380	100	2.42	494	48.8	2.61	247	67.8	2.54	AUC(0-t) [11]: 383 ng·h/mL; Cmax [12]: 112 ng/mL; half-life [12]: 2.63 h; AUC(0-t) [12]: 602 ng·h/mL	Cl.N=C1CCCN1Cc1[nH]c(=O)[nH]c(=O)c1Cl [TPI, 5-chloro-6-[(2-iminopyrrolidine-1-yl)methyl]pyrimidine-2,4(1H,3H)-dione hydrochloride]
